Reference: US9629843B2, “MTOR modulators and uses thereof” (The Regents of the University of California, priority 2008, dated 2017)
“Also recorded” adds a separate entry of the source.

Columns and labels:
[1] = system: Akt phosphorylation (S473, T308) in L6 myotubes; test: Akt phosphorylation in insulin stimulated L6 myotubes (immunoblot); assay type: cell-based; conditions: 100 nM insulin, FIG. 3
Description: L6 myoblasts were grown typically grown in DMEM supplemented with about 10% FBS, glutamine and penicillin/streptomycin. Confluent L6 myoblasts were differentiated into mytubes by culturing them for approximately 5 days in media containing about 2% FBS. L6 myotubes were maintained in media containing approximately 2% FBS until use.
In order to compare the effect of TORKinibs and PIK-90 on Akt phosphorylation, L6 myotubes were serum starved overnight and incubated with inhibitors or about 0.1% DMSO for approximately 30 minutes prior to stimulation with insulin (e.g. 100 nM) for about 10 minutes. Cells were lysed by scraping into ice cold lysis buffer (generally: 300 mM NaCl, 50 mM Tris pH 7.5, 5 mM EDTA, 1% TRITON™ X-100, 0.02% NaN3, 20 nM microcystin, Sigma phosphatase inhibitor cocktails 1 and 2, Roche protease inhibitor cocktail and 2 mM PMSF). After contacting cells with lysis buffer, the solution was briefly sonicated. Lysates were cleared by centrifugation, resolved by SDS-PAGE, transferred to nitrocellulose and immunoblotted using antibodies to phospho-Akt S473, phospho-Akt T308, Akt, and β-actin (Cell Signaling Technologies).

[2] = system: Akt phosphorylation (S473, T308) in MEFs; test: Akt phosphorylation in wild-type and SIN1−/− mouse embryonic fibroblasts (immunoblot); assay type: cell-based
Description: Wild-type and SIN1−/− primary mouse embryonic fibroblasts (MEFs) were grown in DMEM supplemented with about 10% FBS, glutamine and penicillin/streptomycin. MEFs were treated with TORKinib at about 2.5, 0.63, and 0.16 uM; rapamycin at approximately 15 nM; or PIK-90 at 625 nM for 30 minutes prior to insulin stimulation (e.g. 100 nM) for 10 minutes. Cells were lysed by scraping into ice cold lysis buffer (typically 300 mM NaCl, 50 mM Tris pH 7.5, 5 mM EDTA, 1% TRITON™ X-100, 0.02% NaN3, 20 nM microcystin, Sigma phosphatase inhibitor cocktails 1 and 2, Roche protease inhibitor cocktail and 2 mM PMSF). After contacting cells with lysis buffer, the solution was briefly sonicated. Lysates were cleared by centrifugation, resolved by SDS-PAGE, transferred to nitrocellulose and immunoblotted using antibodies to phospho-Akt S473, phospho-Akt T308, Akt, and β-actin (Cell Signaling Technologies).

[3] = system: Akt substrates (GSK3, TSC2, FoxO1/O3a) in L6 myotubes; test: Phosphorylation of Akt substrates in insulin stimulated L6 myotubes; assay type: cell-based; conditions: FIG. 6
[4] = system: S6K, S6, 4EBP1 phosphorylation in L6 myotubes; test: Phosphorylation of S6K, S6 and 4EBP1 in insulin stimulated L6 myotubes; assay type: cell-based
[5] = system: 4EBP1 binding to eIF-4E; test: m7GTP cap pull-down assay in L6 myotubes; assay type: cell-based; conditions: insulin stimulated L6 myotubes; FIG. 10
[6] = system: p70S6K, 4EBP1 phosphorylation in MEFs; test: Phosphorylation of 70S6K and 4EBP1 in mouse embryonic fibroblasts; assay type: cell-based; conditions: wild-type and SIN1−/− MEFs; FIG. 11
Description: Wild-type and SIN1−/− primary mouse embryonic fibroblasts (MEFs) were grown in DMEM supplemented with about 10% FBS, glutamine and penicillin/streptomycin. MEFs were treated with TORKinib at approximately 2.5, 0.63, and 0.16 uM; rapamycin at about 15 nM; or PIK-90 at about 625 nM for approximately 30 minutes prior to insulin stimulation (e.g. 100 nM) for about 10 minutes. Cells were lysed by scraping into ice cold lysis buffer (generally: 300 mM NaCl, 50 mM Tris pH 7.5, 5 mM EDTA, 1% TRITON™ X-100, 0.02% NaN3, 20 nM microcystin, Sigma phosphatase inhibitor cocktails 1 and 2, Roche protease inhibitor cocktail and 2 mM PMSF). After contacting cells with lysis buffer, the solution was briefly sonicated. Lysates were cleared by centrifugation, resolved by SDS-PAGE, transferred to nitrocellulose and immunoblotted using antibodies to phospho-p70S6K T389, phospho-4EBP1 T37/46, phospho-4EBP1 S65, and β-actin (Cell Signaling Technologies).

[7] = system: Akt, S6, 4EBP1 phosphorylation in tissues; test: In vivo effect on insulin signaling in fat, skeletal muscle and liver of mice; set-up: species or system C57BL/6 mice
[8] = system: Akt-S473 and S6 phosphorylation in T cells; test: Phosflow of anti-CD3 stimulated murine splenocytes; assay type: cell-based
[9] = Pharmacokinetics of PP242; conditions: in vivo
[10] = Tolerability in mice; assay type: in vivo; conditions: 10, 30 or 100 mg/kg, four times or twice daily, p.o.
[11] = Tolerability in rats; assay type: in vivo; conditions: 10, 30 or 100 mg/kg, four times or twice daily, p.o.
[12] = Metabolic stability in microsome and cellular assays; assay type: in vitro ADME
[13] = Genetic toxicology (mini-Ames test)
[14] = system: myristolated-Akt transgenic thymocytes tumors; test: Akt murine allograft tumor model; assay type: in vivo, NOD/SCID mice
[15] = system: SGK1 phosphorylation; test: SGK1 phosphorylation in mpkCCD cells (mobility shift immunoblot); assay type: cell-based; conditions: at a concentration of 0.3 μM
[16] = system: p70S6K phosphorylation; test: p70S6K phosphorylation in mpkCCD cells; assay type: cell-based
[17] = system: SGK1 pS422; test: HM (pS422) phosphorylation of flag-tagged SGK1 in HEK293 cells; assay type: cell-based, Human; conditions: insulin, FIG. 28C
[18] = system: mTORC2/AKT and mTORC1 signaling; test: mTORC2/AKT and mTORC1 signaling in p190 cells (western blot); assay type: cell-based; conditions: FIGS. 38A-38B
Description: Western blots of p190 cells treated for 1.5 hr (a) or 3 hr (b) with indicated inhibitors are depicted in FIG. 38A and FIG. 38B. […] Clinically achievable concentrations of IM (1.0 μM) and DA (100 nM) were used for the combination treatments. See also FIGS. 40A-40B. Activation of PI3K was quantified in cells by signal pixel intensity and localized area of PIP3 accumulation by confocal microscopy, as depicted in FIG. 38C. […] A minimum of 250 cells was quantified from 2 separate images. […] Representative images depict PIP3 accumulation, nuclear content (DAPI stain) merged onto DIC images (13.5 μm scale bar). […] Autophagy (LC3 puncta accumulation), loss of proliferation (EdU accumulation), and distinct localization patterns of Foxo1 were assessed by confocal microscopy and representative cells were magnified for clarity. Cytoplasmic localization of Foxo1 corresponds to AKT activation, whereas nuclear accumulation signifies AKT inhibition.

[19] = system: PI3K signaling (PIP3 accumulation); test: PIP3 accumulation in p190 cells by confocal microscopy; assay type: cell-based; conditions: 20 and 200 nM, 4 hr; FIG. 38C
[20] = system: cap-dependent translation; test: Cap-dependent translation, m7GTP affinity, p190 cells; assay type: cell-based; conditions: IM at 5 μM; FIG. 38D
[21] = system: ENaC-dependent Na+ current
[22] = system: ENaC-dependent Na+ current; test: ENaC-dependent Na+ transport in mpkCCD cells

Structure (SMILES): CC(C)n1nc(-c2cc3cc(O)ccc3[nH]2)c2c(N)ncnc21 [PP242]
- insulin stimulated phosphorylation of Akt at S473 and T308 [1]: inhibit insulin stimulated phosphorylation of Akt at S473
- phosphorylation of Akt T308 ([2]; SIN1−/− MEFs): has no effect
- phosphorylation of Akt at S473 and T308 ([2]; wild-type MEFs): inhibits the phosphorylation of Akt at both S473 and T308
- phosphorylation of Akt and its substrates [3]: partially inhibited
- phosphorylation of 4EBP1 at S65 [4]: fully inhibits
- phosphorylation of 4EBP1 at T70 [4]: neither rapamycin nor TORKinib affect
- phosphorylation of 4EBP1 at T37/46 ([4]; listed as TORKinib): fully inhibits; also recorded: able to inhibit
- retention of 4EBP1 on eIF-4E (m7GTP pull-down) [5]: caused a greater retention of 4EBP1
- phosphorylation of p70S6K and 4EBP1 [6]: more complete inhibitor of 4EBP1 phosphorylation under the conditions tested than rapamycin
- S6 phosphorylation ([7]; all tissues examined): equally inhibited
- phosphorylation of 4EBP1 on T37/46 and S65 ([7]; all tissues examined): effective at blocking
- phosphorylation of Akt at S473 and T308 ([7]; fat and liver, i.p., insulin stimulated mice): completely inhibit
- phosphorylation of Akt ([7]; skeletal muscle): only partially able to inhibit
- anti-CD3 mediated phosphorylation of Akt-S473 [8]: inhibits
- anti-CD3 mediated phosphorylation of S6 [8]: inhibits
- clearance [9]: moderate
- volume of distribution [9]: good
- oral bioavailability (F %) ([9]; po): 30-70%
- tolerability [10]: tolerated
- tolerability [11]: tolerated
- metabolic stability [12]: metabolically stable
- genetic toxicology (mini-Ames test) [13]: clean profile
- tumor growth ([14]; PP242 100 mg/kg, rapamycin 5 mg/kg, gavage daily, 20 days): no tumor growth
- body weight ([14]; after 20 days of treatment): maintained body weight
- phosphorylation of SGK1 [15]: completely abolished
- p70S6K phosphorylation [16]: eliminated the band detected by anti-phospho p70S6K antibody
- pS422-SGK1 band [17]: abrogated
- mTORC2/AKT and mTORC1 signaling in B-ALL [18]: completely inhibits mTORC2/AKT and mTORC1 signaling
- PI3K signaling (PIP3 accumulation) [19]: had no significant effect
- cap-dependent translation [20]: inhibit cap-dependent translation
- toxic effect of prolonged treatment [21]: diminishes electrical resistance and causes morphological changes
- T1/2 of effect on Na+ current ([22]; FIG. 29B): approximately 15 minutes
- amiloride-sensitive Na+ current ([22]; at a concentration of 0.3 μM): completely abolished
- aldosterone-induced Na+ current ([22]; mpkCCD cells): completely blocked aldosterone-induced current
